The test system of the series is mGrn mRNA. Briefly: mGrn mRNA qPCR in Neuro2a cells transfected with ASOs. It counts as cell-based, mouse. The conditions noted are these: for mGRN mRNA FC: Table 14, 100 nM, 48 hours, normalized to sNTC3; for 40 nM FC (mGrn mRNA) / 80 nM FC (mGrn mRNA) / 160 nM FC (mGrn mRNA): transfection. Here is the method: 57 ASOs targeting the Grn promoter (− strand) were screened in Neuro2a cells. Neuro2a cells were transfected with 100 nM of each of the ASOs listed in Table 14 and cells were harvested 48 hours later for Grn mRNA quantification using qPCR. Housekeeping genes for normalization were Gapdh and Ppia. Relative Grn mRNA levels were normalized to mRNA extracted from cells treated with sNTC3 (steric nontargeting control).
Next, 26 ASOs based on parent ASOs CO-3544 and CO-3595 were designed with different modifications and base walking. Neuro2a cells were transfected with either […] or 160 nM of each of the ASOs listed in Table 15, and cells were harvested 48 hours later for mGrn mRNA quantification using qPCR. As controls, cells were treated with sNTC3 or no ASO. Housekeeping genes for normalization were Gapdh and Ppia. Relative Grn mRNA levels were normalized to mRNA extracted from cells treated with sNTC3.
CO-3544 was modified to include PO/PS bonds and the efficacy in upregulating mGrn mRNA was determined.
Similarly, CO-3595 was modified to include varying PO/PS internucleotide bonds and the efficacy of these ASOs in upregulating mGrn mRNA was determined in Neuro2A cells.

The record followed here is patent US20250243488A1, “METHODS OF MODULATING PROGRANULIN EXPRESSION USING ANTISENSE OLIGONUCLEOTIDES TARGETING REGULATORY RNAS” (Camp4 Therapeutics Corporation, priority 2022, published 2025).

Oligonucleotides are written 5' to 3', each unit as a sugar letter and its base; * is a phosphorothioate linkage, no mark a phosphodiester; rarer units and linkages stand in square brackets, end groups in braces. Plain capitals give the bases only. e = 2'-O-(2-methoxyethyl) (MOE); l = locked nucleic acid (LNA); [5mC] = 5-methylcytosine

On to “CO-3599: ASO targeting the Grn promoter (− strand) (antisense eA*eT*eG*eA*eT*eG*e[5mC]*eA*e[5mC]*e[5mC]*eA*eG*eT*e[5mC]*eT*eT*eA*e[5mC]*eA*e[5mC])”, for which the “mGRN mRNA FC” value (Neuro2a) was found to be 1.0 FC.

As for “CO-3600: ASO targeting the Grn promoter (− strand) (antisense eG*eG*eA*eA*e[5mC]*eA*e[5mC]*e[5mC]*eT*eA*eT*eG*e[5mC]*eT*eA*eA*e[5mC]*eA*e[5mC]*e[5mC])”, the “mGRN mRNA FC” value (Neuro2a) amounted to 1.5 FC.

With “CO-4082: ASO based on parent ASOs CO-3544 and CO-3595, different modifications and base walking (antisense eG*eT*eT*e[5mC]*eT*l[5mC]*e[5mC]*e[5mC]*lT*eA*eG*l[5mC]*eT*eG*lT*eG*eT*eA*eG*eT)”, where the note is “Table 15, Neuro2a”, the “40 nM FC (mGrn mRNA)” value is listed as 1.4 FC, the “80 nM FC (mGrn mRNA)” value was 1.6 FC and the “160 nM FC (mGrn mRNA)” value came to 1.4 FC.

As for “CO-4083: ASO based on parent ASOs CO-3544 and CO-3595, different modifications and base walking (antisense e[5mC]*e[5mC]*eT*eG*eA*lA*e[5mC]*eT*lG*eT*eA*lT*eG*eG*l[5mC]*eT*eG*eA*e[5mC]*e[5mC])”, where the note is “Table 16, Neuro2A”, the “40 nM FC (mGrn mRNA)” value was 1.3 FC, the “80 nM FC (mGrn mRNA)” value came out at 1.4 FC and the “160 nM FC (mGrn mRNA)” value worked out at 1.6 FC.

“CO-5290: CO-3544 modified to include PO/PS bonds (antisense eG*eT*eTe[5mC]eTe[5mC]e[5mC]e[5mC]eTeAeGe[5mC]eTeGeTeGeT*eA*eG*eT)”: where the note is “Table 15, Neuro2a”, the “40 nM FC (mGrn mRNA)” value turned out to be 1.1 FC, the “80 nM FC (mGrn mRNA)” value amounted to 1.0 FC and the “160 nM FC (mGrn mRNA)” value came out at 1.0 FC.

With “CO-5291: CO-3544 modified to include PO/PS bonds (antisense eG*eT*eT*e[5mC]*eTe[5mC]e[5mC]e[5mC]eTeAeGe[5mC]eTeGeTeGeT*eA*eG*eT)”, for the setting “Table 15, Neuro2a”, the “40 nM FC (mGrn mRNA)” value is recorded as 0.9 FC, the “80 nM FC (mGrn mRNA)” value came to 1.0 FC and the “160 nM FC (mGrn mRNA)” value worked out at 0.9 FC.

Turning to “CO-5292: CO-3544 modified to include PO/PS bonds (antisense eG*eT*eT*e[5mC]*eT*e[5mC]*e[5mC]e[5mC]eTeAeGe[5mC]eTeGeTeGeT*eA*eG*eT)”, for the setting “Table 15, Neuro2a”, the “40 nM FC (mGrn mRNA)” value is 1.1 FC, the “80 nM FC (mGrn mRNA)” value is on record as 1.1 FC and the “160 nM FC (mGrn mRNA)” value came to 1.1 FC.

For “CO-5293: CO-3544 modified to include PO/PS bonds (antisense GTTCTCCCTAGCTGTGTAGT; 2'-MOE, mixed PS/PO, 5-methylcytosine; listed as RNA; modified_base 1..9: mod_base = OTHER; note = Phosphorothioate linkage; modified_base 17..20: mod_base = OTHER; modified_base 1..20: mod_base = OTHER; note = 2'-O-(2-methoxyethyl) ribonucleotide; modified_base 4)”, under “Table 15, Neuro2a”, the “40 nM FC (mGrn mRNA)” value is 1.1 FC, the “80 nM FC (mGrn mRNA)” value is recorded as 1.0 FC and the “160 nM FC (mGrn mRNA)” value is listed as 1.1 FC.

In the case of “CO-5294: CO-3544 modified to include PO/PS bonds (antisense eG*eT*eT*e[5mC]*eT*e[5mC]*e[5mC]*e[5mC]*eT*eA*eGe[5mC]eTeGeTeGeT*eA*eG*eT)”, where the note is “Table 15, Neuro2a”, the “40 nM FC (mGrn mRNA)” value amounted to 1.1 FC, the “80 nM FC (mGrn mRNA)” value stood at 1.1 FC and the “160 nM FC (mGrn mRNA)” value worked out at 1.3 FC.

Consider “CO-5295: CO-3544 modified to include PO/PS bonds (antisense eG*eT*eT*e[5mC]*eT*e[5mC]*e[5mC]*e[5mC]*eT*eA*eG*e[5mC]*eTeGeTeGeT*eA*eG*eT)”, for which, under “Table 15, Neuro2a”, the “40 nM FC (mGrn mRNA)” value was determined as 1.1 FC, the “80 nM FC (mGrn mRNA)” value is listed as 1.3 FC and the “160 nM FC (mGrn mRNA)” value is 1.4 FC.
